In US20240293379A1, “THERAPEUTIC AGENT FOR CANCER OF PATIENT WITH DECREASE IN RB1 FUNCTION USING MYT1 INHIBITOR AND CHEMOTHERAPEUTIC AGENT IN COMBINATION, AND TREATMENT METHOD THEREOF” (Chugai Seiyaku Kabushiki Kaisha, priority 2022, published 2024):

Legend:
Test in all cases: Pemetrexed cytotoxicity test upon suppression of expression of MYT1
Type in all cases: cell-based
A549 = A549 (RB1 wild-type)
Protocol: (§1) Thereafter, the plates were shaken to transfect each siRNA at a final concentration of 10 nM.
(§2) The −Log 2 value of fold change of IC50 and the maximum value of Bliss score, which are indexes of the combination effect, were calculated by comparing with the actually obtained cell survival curve, and described in Table 6 (see Non Patent Literature 9).

NCI-H596 = NCI-H596 (RB1 mutant)
Protocol: as §1, §2

NCI-H460 = NCI-H460 (RB1 wild-type)
Protocol: as §1, §2

NCI-H358 = NCI-H358 (RB1 wild-type)
Protocol: as §1, §2

PC-9 = PC-9 (RB1 wild-type)
Protocol: as §1, §2

NCI-H441 = NCI-H441 (RB1 wild-type)
Protocol: as §1, §2

ABC-1 = ABC-1 (RB1 wild-type)
Protocol: as §1, §2

LU65 = LU65 (RB1 mutant)
Protocol: as §1, §2

NCI-H2122 = NCI-H2122 (RB1 wild-type)
Protocol: as §1, §2

ChaGo-K-1 = ChaGo-K-1 (RB1 mutant)
Protocol: as §1, §2

NCI-H1155 = NCI-H1155 (RB1 mutant)
Protocol: as §1, §2

EKVX = EKVX (RB1 wild-type)
Protocol: as §1, §2

NCI-H2110 = NCI-H2110 (RB1 mutant)
Protocol: as §1, §2

NCI-H1993 = NCI-H1993 (RB1 wild-type)
Protocol: as §1, §2

NCI-H661 = NCI-H661 (RB1 wild-type)
Protocol: as §1, §2

HOP-62 = HOP-62 (RB1 wild-type)
Protocol: as §1, §2

NCI-H292 = NCI-H292 (RB1 wild-type)
Protocol: as §1, §2

NCI-H322 = NCI-H322 (RB1 wild-type)
Protocol: as §1, §2

NCI-H1666 = NCI-H1666 (RB1 wild-type)
Protocol: as §1, §2

[1] = pemetrexed + MYT1 siRNA #16 10 nM
[2] = pemetrexed + MYT1 siRNA #18 10 nM

Substance: MYT1 #16: ON-TARGETplus individual siRNA, Dharmacon product code J-005026-16, nucleotide sequence SEQ ID No: 4 (GGACCUAAGUGACAUCAAC; chemistry not fully specified)
- Cytotoxic activity of siRNA alone, MYT1 #16 (A549; 10 nM, no pemetrexed): −3.683%
- Bliss score maximum value, MYT1 #16 (A549; [1]): 17.634
- HSA score maximum value, MYT1 #16 (A549; [1]): 15.047
- Cytotoxic activity of siRNA alone, MYT1 #16 (NCI-H596; 10 nM, no pemetrexed): 13.549%
- Bliss score maximum value, MYT1 #16 (NCI-H596; [1]): 56.598
- HSA score maximum value, MYT1 #16 (NCI-H596; [1]): 67.277
- Cytotoxic activity of siRNA alone, MYT1 #16 (NCI-H460; 10 nM, no pemetrexed): −6.609%
- Bliss score maximum value, MYT1 #16 (NCI-H460; [1]): 17.443
- HSA score maximum value, MYT1 #16 (NCI-H460; [1]): 9.093
- Cytotoxic activity of siRNA alone, MYT1 #16 (NCI-H358; 10 nM, no pemetrexed): 0.021%
- Bliss score maximum value, MYT1 #16 (NCI-H358; [1]): 12.322
- HSA score maximum value, MYT1 #16 (NCI-H358; [1]): 12.336
- Cytotoxic activity of siRNA alone, MYT1 #16 (PC-9; 10 nM, no pemetrexed): −5.180%
- Bliss score maximum value, MYT1 #16 (PC-9; [1]): 35.148
- Cytotoxic activity of siRNA alone, MYT1 #16 (NCI-H441; 10 nM, no pemetrexed): 12.986%
- Bliss score maximum value, MYT1 #16 (NCI-H441; [1]): 21.600
- HSA score maximum value, MYT1 #16 (NCI-H441; [1]): 30.794
- Cytotoxic activity of siRNA alone, MYT1 #16 (ABC-1; 10 nM, no pemetrexed): 3.870%
- Bliss score maximum value, MYT1 #16 (ABC-1; [1]): 21.970
- HSA score maximum value, MYT1 #16 (ABC-1; [1]): 25.475
- Cytotoxic activity of siRNA alone, MYT1 #16 (LU65; 10 nM, no pemetrexed): 8.109%
- Bliss score maximum value, MYT1 #16 (LU65; [1]): 29.374
- HSA score maximum value, MYT1 #16 (LU65; [1]): 34.405
- Cytotoxic activity of siRNA alone, MYT1 #16 (NCI-H2122; 10 nM, no pemetrexed): 11.825%
- Bliss score maximum value, MYT1 #16 (NCI-H2122; [1]): 15.749
- HSA score maximum value, MYT1 #16 (NCI-H2122; [1]): 20.659
- Cytotoxic activity of siRNA alone, MYT1 #16 (ChaGo-K-1; 10 nM, no pemetrexed): −1.049%
- Bliss score maximum value, MYT1 #16 (ChaGo-K-1; [1]): 40.066
- HSA score maximum value, MYT1 #16 (ChaGo-K-1; [1]): 39.075
- Cytotoxic activity of siRNA alone, MYT1 #16 (NCI-H1155; 10 nM, no pemetrexed): 5.782%
- Bliss score maximum value, MYT1 #16 (NCI-H1155; [1]): 77.287
- HSA score maximum value, MYT1 #16 (NCI-H1155; [1]): 76.586
- Cytotoxic activity of siRNA alone, MYT1 #16 (EKVX; 10 nM, no pemetrexed): −1.125%
- Bliss score maximum value, MYT1 #16 (EKVX; [1]): 16.454
- HSA score maximum value, MYT1 #16 (EKVX; [1]): 15.771
- Cytotoxic activity of siRNA alone, MYT1 #16 (NCI-H2110; 10 nM, no pemetrexed): 15.886%
- Bliss score maximum value, MYT1 #16 (NCI-H2110; [1]): 24.584
- HSA score maximum value, MYT1 #16 (NCI-H2110; [1]): 36.712
- Cytotoxic activity of siRNA alone, MYT1 #16 (NCI-H1993; 10 nM, no pemetrexed): 35.910%
- Bliss score maximum value, MYT1 #16 (NCI-H1993; [1]): 5.736
- HSA score maximum value, MYT1 #16 (NCI-H1993; [1]): 21.843
- Cytotoxic activity of siRNA alone, MYT1 #16 (NCI-H661; 10 nM, no pemetrexed): 20.313%
- Bliss score maximum value, MYT1 #16 (NCI-H661; [1]): 8.081
- HSA score maximum value, MYT1 #16 (NCI-H661; [1]): 22.502
- Cytotoxic activity of siRNA alone, MYT1 #16 (HOP-62; 10 nM, no pemetrexed): 8.347%
- Bliss score maximum value, MYT1 #16 (HOP-62; [1]): 20.165
- HSA score maximum value, MYT1 #16 (HOP-62; [1]): 24.453
- Cytotoxic activity of siRNA alone, MYT1 #16 (NCI-H292; 10 nM, no pemetrexed): 19.878%
- Bliss score maximum value, MYT1 #16 (NCI-H292; [1]): 19.031
- HSA score maximum value, MYT1 #16 (NCI-H292; [1]): 21.907
- Cytotoxic activity of siRNA alone, MYT1 #16 (NCI-H322; 10 nM, no pemetrexed): −10.363%
- Bliss score maximum value, MYT1 #16 (NCI-H322; [1]): 24.679
- Cytotoxic activity of siRNA alone, MYT1 #16 (NCI-H1666; 10 nM, no pemetrexed): −4.467%
- Bliss score maximum value, MYT1 #16 (NCI-H1666; [1]): 8.127
- HSA score maximum value, MYT1 #16 (NCI-H1666; [1]): 5.753

Substance: MYT1 #18: ON-TARGETplus individual siRNA, Dharmacon product code J-005026-18, nucleotide sequence SEQ ID No: 5 (CUUCCGAGCUGCGUUCUGU; chemistry not fully specified)
- Cytotoxic activity of siRNA alone, MYT1 #18 (A549; 10 nM, no pemetrexed): 0.844%
- Bliss score maximum value, MYT1 #18 (A549; [2]): 9.581
- HSA score maximum value, MYT1 #18 (A549; [2]): 10.174
- Cytotoxic activity of siRNA alone, MYT1 #18 (NCI-H596; 10 nM, no pemetrexed): −2.058%
- Bliss score maximum value, MYT1 #18 (NCI-H596; [2]): 44.329
- HSA score maximum value, MYT1 #18 (NCI-H596; [2]): 42.707
- Cytotoxic activity of siRNA alone, MYT1 #18 (NCI-H460; 10 nM, no pemetrexed): −2.387%
- HSA score maximum value, MYT1 #18 (NCI-H460; [2]): 9.099
- Cytotoxic activity of siRNA alone, MYT1 #18 (NCI-H358; 10 nM, no pemetrexed): 2.693%
- Bliss score maximum value, MYT1 #18 (NCI-H358; [2]): 13.168
- HSA score maximum value, MYT1 #18 (NCI-H358; [2]): 14.592
- Cytotoxic activity of siRNA alone, MYT1 #18 (PC-9; 10 nM, no pemetrexed): −9.517%
- Bliss score maximum value, MYT1 #18 (PC-9; [2]): 18.833
- HSA score maximum value, MYT1 #18 (PC-9; [2]): 14.476
- Cytotoxic activity of siRNA alone, MYT1 #18 (NCI-H441; 10 nM, no pemetrexed): 22.238%
- Bliss score maximum value, MYT1 #18 (NCI-H441; [2]): 0.784
- HSA score maximum value, MYT1 #18 (NCI-H441; [2]): 17.896
- Cytotoxic activity of siRNA alone, MYT1 #18 (ABC-1; 10 nM, no pemetrexed): 7.811%
- Bliss score maximum value, MYT1 #18 (ABC-1; [2]): 22.139
- Cytotoxic activity of siRNA alone, MYT1 #18 (LU65; 10 nM, no pemetrexed): −0.297%
- Bliss score maximum value, MYT1 #18 (LU65; [2]): 34.154
- HSA score maximum value, MYT1 #18 (LU65; [2]): 33.984
- Cytotoxic activity of siRNA alone, MYT1 #18 (NCI-H2122; 10 nM, no pemetrexed): 5.899%
- Bliss score maximum value, MYT1 #18 (NCI-H2122; [2]): 13.938
- Cytotoxic activity of siRNA alone, MYT1 #18 (ChaGo-K-1; 10 nM, no pemetrexed): −2.748%
- Bliss score maximum value, MYT1 #18 (ChaGo-K-1; [2]): 34.464
- HSA score maximum value, MYT1 #18 (ChaGo-K-1; [2]): 32.605
- Cytotoxic activity of siRNA alone, MYT1 #18 (NCI-H1155; 10 nM, no pemetrexed): 30.960%
- Bliss score maximum value, MYT1 #18 (NCI-H1155; [2]): 23.341
- HSA score maximum value, MYT1 #18 (NCI-H1155; [2]): 32.708
- Cytotoxic activity of siRNA alone, MYT1 #18 (EKVX; 10 nM, no pemetrexed): 1.053%
- Bliss score maximum value, MYT1 #18 (EKVX; [2]): 6.653
- HSA score maximum value, MYT1 #18 (EKVX; [2]): 7.060
- Cytotoxic activity of siRNA alone, MYT1 #18 (NCI-H2110; 10 nM, no pemetrexed): 9.660%
- Bliss score maximum value, MYT1 #18 (NCI-H2110; [2]): 23.200
- HSA score maximum value, MYT1 #18 (NCI-H2110; [2]): 28.531
- Cytotoxic activity of siRNA alone, MYT1 #18 (NCI-H1993; 10 nM, no pemetrexed): 10.347%
- Bliss score maximum value, MYT1 #18 (NCI-H1993; [2]): 7.046
- HSA score maximum value, MYT1 #18 (NCI-H1993; [2]): 14.207
- Cytotoxic activity of siRNA alone, MYT1 #18 (NCI-H661; 10 nM, no pemetrexed): 9.766%
- Bliss score maximum value, MYT1 #18 (NCI-H661; [2]): 11.699
- HSA score maximum value, MYT1 #18 (NCI-H661; [2]): 16.633
- Cytotoxic activity of siRNA alone, MYT1 #18 (HOP-62; 10 nM, no pemetrexed): 10.654%
- Bliss score maximum value, MYT1 #18 (HOP-62; [2]): 20.375
- HSA score maximum value, MYT1 #18 (HOP-62; [2]): 25.849
- Cytotoxic activity of siRNA alone, MYT1 #18 (NCI-H292; 10 nM, no pemetrexed): 11.155%
- Bliss score maximum value, MYT1 #18 (NCI-H292; [2]): 6.895
- HSA score maximum value, MYT1 #18 (NCI-H292; [2]): 11.985
- Cytotoxic activity of siRNA alone, MYT1 #18 (NCI-H322; 10 nM, no pemetrexed): −6.271%
- Bliss score maximum value, MYT1 #18 (NCI-H322; [2]): 23.827
- HSA score maximum value, MYT1 #18 (NCI-H322; [2]): 19.509
- Cytotoxic activity of siRNA alone, MYT1 #18 (NCI-H1666; 10 nM, no pemetrexed): 1.456%
- Bliss score maximum value, MYT1 #18 (NCI-H1666; [2]): 13.160
- HSA score maximum value, MYT1 #18 (NCI-H1666; [2]): 13.970
